These results are taken from DBAASP.

Molecules are shown by their SMILES. ≈ marks a conversion by molar mass, not a printed value.

Holding throughout (test): ≥ marks a high value that may be exact or a test limit, other limits are often not marked, values filed in µg/mL are converted to µM
In one assay the test system is Escherichia coli UB1005.
In assay [1] the test system is Corynebacterium xerosis C875.
For assay [2], the system named is Staphylococcus epidermidis C621.
The test system of the next assay is Escherichia coli DC2.
Assay [3] deals with Escherichia coli ATCC 25922.
In assay [4] the test system is Pseudomonas aeruginosa ATCC 27853.
For assay [5], the system named is Escherichia coli ATCC 11775.
Assay [6] deals with Staphylococcus aureus ATCC 12600.
Assay [7] relates to Escherichia coli NCTC 10418.

A word on the MIC: it is the smallest concentration in the dilution series that meets the test's criterion for growth inhibition. Consider `C[C@H](NC(=O)[C@H](C)NC(=O)[C@H](C)NC(=O)[C@H](CS)NC(=O)[C@H](C)NC(=O)[C@H](C)NC(=O)[C@H](C)NC(=O)[C@H](CCCCN)NC(=O)[C@@H](N)CCCCN)C(=O)N[C@@H](C)C(=O)N[C@@H](C)C(=O)N[C@@H](CS)C(=O)N[C@@H](C)C(=O)N[C@@H](C)C(=O)N[C@@H](Cc1c[nH]c2ccccc12)C(=O)N[C@@H](C)C(=O)N[C@@H](C)C(=O)N[C@@H](CS)C(=O)N[C@@H](C)C(=O)N[C@@H](C)C(=O)N[C@@H](C)C(=O)N[C@@H](CCCCN)C(=O)N[C@@H](CCCCN)C(=O)N[C@@H](CCCCN)C(=O)N[C@@H](CCCCN)C(N)=O` [KKAAACAAAAACAAWAACAAAKKKK], for which the MIC is 16 µM (≈ 37.6 µg/mL) in the assay with Escherichia coli UB1005, 1 µM (≈ 2.35 µg/mL) in assay [1], no less than 32 µM in assay [2] and 8 µM (≈ 18.8 µg/mL) against Escherichia coli DC2.
With `C[C@H](NC(=O)[C@H](C)NC(=O)[C@H](C)NC(=O)[C@H](Cc1ccccc1)NC(=O)[C@H](C)NC(=O)[C@H](C)NC(=O)[C@H](Cc1c[nH]c2ccccc12)NC(=O)[C@H](C)NC(=O)[C@H](C)NC(=O)[C@H](Cc1ccccc1)NC(=O)[C@H](C)NC(=O)[C@H](C)NC(=O)[C@H](C)NC(=O)[C@H](C)NC(=O)[C@H](C)NC(=O)[C@H](Cc1ccccc1)NC(=O)[C@H](C)NC(=O)[C@H](C)NC(=O)[C@H](C)NC(=O)[C@H](CCCCN)NC(=O)[C@H](CCCCN)NC(=O)[C@H](CCCCN)NC(=O)[C@H](CCCCN)NC(=O)[C@H](CCCCN)NC(=O)[C@@H](N)CCCCN)C(N)=O` [KKKKKKAAAFAAAAAFAAWAAFAAA], the MIC came to 16 µM (≈ 39.7 µg/mL) in assay [3]; 16 µM (≈ 39.7 µg/mL) against Escherichia coli UB1005; 1 µM (≈ 2.48 µg/mL) in assay [1]; 4 µM (≈ 9.92 µg/mL) in assay [2]; 8 µM (≈ 19.8 µg/mL) in the assay on Escherichia coli DC2; 32 µM (≈ 79.4 µg/mL) in assay [4].
On to `CC[C@H](C)[C@@H]1NC(=O)[C@H](CC(C)C)NC(=O)[C@@H](NC(=O)[C@H](Cc2ccccc2)NC(=O)[C@H](CC(C)C)NC(=O)[C@H](CCCCN)NC(=O)[C@@H]2CCCN2C(=O)[C@H](CC(C)C)NC(=O)[C@H](C)NC(=O)[C@H](C)NC(=O)[C@H](CC(C)C)NC(=O)[C@H](C)NC(=O)[C@H](CC(C)C)NC(=O)[C@H](CO)NC(=O)[C@H](CC(C)C)NC(=O)[C@@H](N)CC(C)C)CSSC[C@@H](C(=O)O)NC(=O)[C@H](CCCCN)NC(=O)[C@H](CCCCN)NC(=O)[C@H](Cc2ccccc2)NC1=O` [LLSLALAALPKLFCLIFKKC], for which the MIC in [5] amounted to 25 µM (≈ 55.1 µg/mL); in [6], 12.5 µM (≈ 27.5 µg/mL).
With `CSCC[C@H](NC(=O)[C@H](Cc1c[nH]c2ccccc12)NC(=O)[C@@H]1CCCN1C(=O)[C@@H]1CCCN1C(=O)[C@H](Cc1ccccc1)NC(=O)[C@@H](NC(=O)[C@H](Cc1cnc[nH]1)NC(=O)[C@H](Cc1ccccc1)NC(=O)[C@@H](N)CO)C(C)C)C(=O)N[C@H]1CSSC[C@@H](C(=O)O)NC(=O)[C@H](CCCCN)NC(=O)[C@H](CCCCN)NC(=O)[C@H](CC(C)C)NC(=O)[C@H](CO)NC(=O)[C@H](CCCCN)NC1=O` [SFHVFPPWMCKSLKKC], the MIC in [7] was no less than 70 µM.
